Format in all cases: cell-based
Test [1] concerns the target T1, TRPV4 (Homo sapiens, UniProt Q9HBA0).
T1 construct: full-length wild type, transiently transfected HEK293, outside-out patches
Briefly: outside-out patch clamp of HEK293 cells expressing hTRPV4, % inhibition of GSK-activated current at […].

Test [2] has as its target T1, TRPV4. Briefly: outside-out patch clamp of HEK293 cells expressing hTRPV4, inhibition of GSK-activated currents, dose-response (apparent KD from Hill fit). On the technique in general: The patch-clamp technique gives a direct electrical read-out from membranes.
In test [3] the target is T1, TRPV4. The test is described as follows: outside-out patch clamp of HEK293 cells expressing hTRPV4, % inhibition of GSK-activated current at […]. The source holds these as a separate data set.
In test [4] the target is T1, TRPV4. Briefly: outside-out patch clamp of HEK293 cells expressing hTRPV4, activation dose-response (KD from Hill fit).
The target in test [5] is T1, TRPV4. The test is described as follows: outside-out patch clamp of HEK293 cells expressing hTRPV4, % inhibition of GSK-activated current at […]. This is another data set of the same source.
Test [6] has as its target T1, TRPV4. The test is described as above. The source holds these as a separate data set.
Test [7] deals with T1, TRPV4. Described as above. The source holds these as a separate data set.
Test [8] addresses T1, TRPV4. The test is described as follows: outside-out patch clamp of HEK293 cells expressing hTRPV4, dose-response, single-channel recordings and site-directed mutagenesis (apparent KD from Hill fit).

Counter-ions that a name gives are not always drawn. Like-named read-outs stand apart in the source and are kept apart here.

T1 sequence (Q9HBA0 whole entry): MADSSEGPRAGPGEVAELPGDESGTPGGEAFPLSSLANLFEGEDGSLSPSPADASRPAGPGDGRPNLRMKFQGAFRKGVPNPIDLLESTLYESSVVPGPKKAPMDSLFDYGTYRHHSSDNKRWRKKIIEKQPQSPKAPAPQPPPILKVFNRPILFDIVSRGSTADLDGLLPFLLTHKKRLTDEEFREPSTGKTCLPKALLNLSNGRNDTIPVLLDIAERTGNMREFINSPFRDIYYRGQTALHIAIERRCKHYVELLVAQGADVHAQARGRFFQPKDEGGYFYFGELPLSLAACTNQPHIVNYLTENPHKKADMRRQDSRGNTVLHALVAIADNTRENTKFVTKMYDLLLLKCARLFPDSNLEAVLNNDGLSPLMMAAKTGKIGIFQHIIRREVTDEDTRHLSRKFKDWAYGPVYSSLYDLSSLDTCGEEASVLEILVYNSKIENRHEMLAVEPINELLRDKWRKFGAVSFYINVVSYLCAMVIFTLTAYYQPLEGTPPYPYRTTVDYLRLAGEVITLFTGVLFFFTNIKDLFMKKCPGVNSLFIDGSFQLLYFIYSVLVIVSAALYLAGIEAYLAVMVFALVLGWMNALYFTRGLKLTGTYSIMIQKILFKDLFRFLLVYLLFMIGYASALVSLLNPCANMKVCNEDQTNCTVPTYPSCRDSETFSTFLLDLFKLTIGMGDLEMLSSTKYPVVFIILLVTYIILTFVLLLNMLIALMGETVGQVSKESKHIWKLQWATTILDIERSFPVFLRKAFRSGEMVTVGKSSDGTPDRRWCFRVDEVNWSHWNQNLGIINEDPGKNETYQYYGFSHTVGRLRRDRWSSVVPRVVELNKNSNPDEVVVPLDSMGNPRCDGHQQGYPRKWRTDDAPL

Compound `CC(C)(C)NCC(O)c1cc(Cl)c(N)c(Cl)c1` (stereo not drawn) [clenbuterol, 4-amino-α-[t-butylaminomethyl]-3,5-dichlorobenzyl alcohol hydrochloride] showed an inhibition at 500 µM in test [1] of 71.7%.

Take `Cc1ccc(OC[C@H](O)[C@@H](C)NC(C)C)c2c1CCC2` (relative stereo) [ICI, [2R,3R]-rel-3-isopropylamino-1-[7-methylindan-4-yloxy]-butan-2-ol hydrochloride]: in test [2], the Kd came to 3.9 µM.

In turn, `CC(C)NCC(O)c1ccc(O)c(O)c1` (centres unmarked) [isoprenaline, 1-[3′,4′-dihydroxyphenyl]-2-isopropylaminoethanol hydrochloride] displayed an inhibition at 500 µM in test [3] of 51.6%.

In test [4], `CC(C)C[C@H](NC(=O)c1cc2ccccc2s1)C(=O)N1CCN(C(=O)[C@H](CO)NS(=O)(=O)c2ccc(Cl)cc2Cl)CC1` [GSK, GSK1016790A] came in with a Kd of 0.101 µM.

In test [5], `CC(C)NCC(O)c1cc(O)cc(O)c1` (stereo not drawn) [metaproterenol, α-[(isopropylamino)methyl]-3,5-dihydroxybenzyl alcohol hemisulfate salt] had an inhibition at 500 µM of 51.7%.

In test [6], `CC(C)(C)NCC(O)c1cc(O)cc(O)c1` (centres unmarked) [terbutaline, 5-[2-[(1,1-dimethylethyl)amino]-1-hydroxyethyl]-1,3-benzenediol hemisulfate salt] showed an inhibition at 500 µM of 54.4%.

As for `CC(C)(C)NC[C@H](O)c1ccc(O)c(CO)c1` [levalbuterol], in test [7], the inhibition at 500 µM was found to be 42.6%.

Take `CC(C)(C)NCC(O)c1ccc(O)c(CO)c1` (racemic) [salbutamol, α1-[(tert-butylamino)methyl]-4-hydroxy-1,3-benzenedimethanol hemisulfate salt]: the Kd in test [8] stood at 81.3 µM.

One may read the inhibition as how much of the control response was suppressed. A higher inhibition goes with a strong effect.
